In patent publication US20040034082A1, “Utilization of pyrazoline derivatives in the preparation of a medicament for the prevention and/or treatment of proliferative cell diseases” (priority 2001, published 2004):
≈ marks a conversion by molar mass, not a printed value. Where two headings read alike, the source gives them in different places. Blank lines part the entries; values can stand above or below the compound they belong to.

What was measured:
NC59 = experiment: Cytotoxicity (XTT kit), human colon carcinoma cell line NC59; type: cell-based; details: for IC50: read-out: IC-50 (cytotoxicity)
Protocol: (§1) The anti-tumoral activity of the compounds with general formula (I) was studied, determining their effect on cell lines of human colon carcinoma (TD 20 and NC 59). The two cell lines have the wild protein K-Ras. TD20 contains a mutation of the p53 suppressor gene, while NC59 has the p53 wild protein.
(§2) Both cell lines were cultured in a DMEM medium (Life Technologies) supplemented with 10% foetal bovine serum (Life Technologies) at 37° C. and 5% CO2.
(§3) Cytotoxicity tests were carried out using the XTT kit (Boehringer-Manheim) which measures the cell capability to metabolise a tetrazoyl salt to formazan.

TD 20 = experiment: Cytotoxicity (XTT kit), human colon carcinoma cell line TD20; type: cell-based; details: for IC50: read-out: IC-50 (cytotoxicity)
Protocol: as §1, §2, §3

TD20 = experiment: Induction of apoptosis in tumour cell line TD20; type: cell-based, human; details: 100 μM
Protocol: In order to obtain a deeper knowledge of the action mechanism of these compounds the capability to induce apoptosis in the tumour cell line TD20 of the compound of example 3 was studied (dose 100 μM).

NC59 cells = experiment: Signal transduction paths associated to apoptosis in NC59 cells; type: cell-based, human; details: 100 μM, 5 and 20 hours of exposure
Protocol: The signal transduction paths associated to the apoptosis process were then studied. After exposing NC59 cells to a 100 μM concentration of the compound of example 3, the expression levels were studied for p53, FAK and β-actine and the activation level of MAP kinases, JNK and PKB/Akt, after 5 and 20 hours of exposure.

MDAMB 453 = experiment: Cytotoxicity (XTT kit), mammary carcinoma cell line MDAMB 453; type: cell-based; details: for viability at 1 µM / viability at 20 µM / viability at 40 µM / viability at 60 µM / viability at 80 µM: MDA-MB-453, read-out: % Viability of mammary cancer cells ± SD; for IC50: read-out: IC-50 (cytotoxicity)
Protocol: The anti-tumoral activity of the compounds with general formula (I) was studied, determining their effect on a mammary carcinoma cell line (MDAMB 453). The cell line was cultured in a DMEM medium (Life Technologies) supplemented with 10% foetal bovine serum (Life Technologies) at 37° C. and 5% CO2.
as §3

[1] = system: promoter of the human VEGF gene; experiment: Inhibition of the induction of VEGF: promoter-luciferase in transfected Caco-2 cells, TPA; type: cell-based; details: TPA 16 hours, read-out: Inhibition of the induction of VEGF IC-50
Source text: This activity has been studied determining the inhibition of the induction of the expression of VEGF. The increased expression of vascular-endothelial growth factor (VEGF) has been related to tumour progression and angiogenesis. VEGF is a proangiogenic factor, promoting mitogenesis, migration and an increased vascular permeability of in vitro endothelial cells. It has been shown recently that COX-2 can regulate the angiogenesis process induced by colon cancer cells, increasing the expression of proangiogenic factors by said cells. Inhibition of COX-2 may block this process, inhibiting the expression of some of these factors, such as VEGF.
(§4) In order to study the antiangiogenic activity of the products with general formula (I), the expression of the VEGF promoter was studied in a basal and stimulated situation using the Caco-2 human colon carcinoma cell line, temporally transfected with a vector containing the promoter f the human VEGF gene. Once the test conditions were established the capability of the product studied to inhibit the expression of the VEGF and TF genes was studied by measuring the luciferase activity of their promoters.
In the test 1.25×10^5 Caco-2 cells were used temporally transfected with t corresponding DNA in 500 μl of DEMEM-10% FCS medium in 24 dimple plates. […]

TF = experiment: Inhibition of the induction of TF: promoter-luciferase in transfected Caco-2 cells, TPA; type: cell-based; details: Homo sapiens, TPA 16 hours, read-out: Inhibition of the induction of TF IC-50
Source text: In turn, VEGF also induces the expression of Tissue Factor (TF) in monocyte membranes, epithelial cells and endothelium. Although the main function of TF is to initiate the coagulation cascade, it can transduce intracellular signals participating in metastasis and angiogenesis associated to tumours. TF facilitates in vivo growth of the tumour, favouring angiogenesis.
as §4
In the test 1.25×10^5 Caco-2 cells were used temporally transfected with t corresponding DNA in 500 μl of DEMEM-10% FCS medium in 24 dimple plates. The cells were pre-treated for 1 hour with the compounds to be tested, and later stimulated with TPA for 16 hours. Afterwards cell extracts were obtained and their luciferase activity examined, determining the protein concentration.

[2] = system: promoter of the gene COX-2; experiment: Inhibition of the induction of COX-2: stable transfectant JURKAT cells, COX-2 promoter-luciferase, TPA+ionomycine; type: cell-based; details: Homo sapiens
TNF-α = experiment: Inhibition of TNF-α, zymosan air pouch model in mice (ELISA); type: in vivo; details: i.p.
Protocol: The study of the inhibitory activity of TNF-α has been performed according to the method described by P. Klemen et al. (Europ. J. Pharmacol. 1995 281: 69-74), consisting of determining the production of TNF-α in the localised area where the inflammation is acute, specifically using the zymosan inflated air pouch model in mice. The TNF-α present in the inflammatory exudates produced in said pouch as a result of the stimulation with zymosan was determined. The analytical determination of TNF-α was performed by ELISA.

[3] = Homo sapiens, Colon carcinoma cell, read-out: % Viability of colorectal cancer cells ± SD
[4] = Homo sapiens, Colon carcinoma cell, 30 μM, read-out: % Viability of colorectal cancer cells ± SD
[5] = Homo sapiens, Colon carcinoma cell, 100 μM, read-out: % Viability of colorectal cancer cells ± SD
[6] = Homo sapiens, Colon carcinoma cell
[7] = Homo sapiens, Colon carcinoma cell, 80 μM, read-out: % Viability of colorectal cancer cells ± SD

- IC50 [1]: 20 µg/mL (≈ 49.3 µM)
- IC50 (TF): 25 µg/mL (≈ 61.7 µM)
SMILES: NS(=O)(=O)c1ccc(N2N=C(C(F)(F)F)CC2c2ccc(F)cc2F)cc1 (racemic) [Example 3, 1-(4-aminosulphonylphenyl)-5(2,4-difluorophenyl)-4,5-dihydro-3-trifluoromethyl-1H-pyrazol]
- viability at 1 µM (NC59; [3]): 99.64 ± 0.51%
- viability at 20 µM (NC59; [3]): 76.5 ± 8.7%
- viability at 30 µM (NC59; [4]): 56.5 ± 0.25%
- viability at 40 µM (NC59; [3]): 16.7 ± 10.5%
- viability at 60 µM (NC59; [3]): 1.16 ± 0.83%
- viability at 100 µM (NC59; [5]): 0%
- IC50 (NC59; [6]): 30 µM
- IC50 (NC59): 29.9 µM
- viability at 1 µM (TD 20; [3]): 98.6 ± 2.83%
- viability at 20 µM (TD 20; [3]): 84.5 ± 3.05%
- viability at 30 µM (TD 20; [4]): 66.3 ± 5.84%
- viability at 40 µM (TD 20; [3]): 27.4 ± 4.12%
- viability at 60 µM (TD 20; [3]): 1.79 ± 2.09%
- viability at 100 µM (TD 20; [5]): 0.69 ± 0.01%
- IC50 (TD 20; [6]): 34 µM
- IC50 (TD 20): 33.9 µM
- apoptotic cells (TD20; after 24 h): 20%
- apoptotic cells (TD20; after 48 h): 80%
- signal transduction paths activated (p53, FAK, β-actine expression; MAP kinases, JNK, PKB/Akt activation) (NC59 cells): activation of signal transduction paths other than p53, JNK or p38
- viability at 1 µM (MDAMB 453; Homo sapiens, MDAMB 453): 94.8 ± 8.71%
- viability at 20 µM (MDAMB 453; Homo sapiens, MDAMB 453): 31.5 ± 9.12%
- viability at 40 µM (MDAMB 453; Homo sapiens, MDAMB 453): 12.8 ± 4.8%
- viability at 60 µM (MDAMB 453; Homo sapiens, MDAMB 453): 5.97 ± 5.06%
- viability at 80 µM (MDAMB 453; Homo sapiens, MDAMB 453): 2.84 ± 1.71%

- IC50 ([2]; Clone C7, read-out: IC-50 (μg/ml), inhibition of luciferase activity): 5.8 µg/mL (≈ 15 µM)
- IC50 ([2]; Clone C9, read-out: IC-50 (μg/ml), inhibition of luciferase activity): 0.9 µg/mL (≈ 2.33 µM)
- IC50 ([2]; Clone F9, read-out: IC-50 (μg/ml), inhibition of luciferase activity): 1.8 µg/mL (≈ 4.66 µM)
- IC50 [1]: 25 µg/mL (≈ 64.7 µM)
- IC50 (TF): 22 µg/mL (≈ 56.9 µM)
SMILES: CS(=O)(=O)c1ccc(C2CC(C(F)(F)F)=NN2c2ccc(F)cc2)cc1 (stereo not drawn) [Example 10]
- inhibition at 0.5 µg/mL ([2]; Clone C7, 0.5 μg/ml): 20%
- inhibition at 5 µg/mL ([2]; Clone C7, 5 μg/ml): 55%
- inhibition at 50 µg/mL ([2]; Clone C7, 50 μg/ml): 85%
- inhibition at 0.5 µg/mL ([2]; Clone C9, 0.5 μg/ml): 40%
- inhibition at 5 µg/mL ([2]; Clone C9, 5 μg/ml): 75%
- inhibition at 50 µg/mL ([2]; Clone C9, 50 μg/ml): 85%
- inhibition at 0.5 µg/mL ([2]; Clone F9, 0.5 μg/ml): 32%
- inhibition at 5 µg/mL ([2]; Clone F9, 5 μg/ml): 65%
- inhibition at 50 µg/mL ([2]; Clone F9, 50 μg/ml): 95%
- viability at 1 µM (NC59; [3]): 92.1 ± 9.35%
- viability at 20 µM (NC59; [3]): 76.1 ± 7.17%
- viability at 40 µM (NC59; [3]): 15.8 ± 9.37%
- viability at 60 µM (NC59; [3]): 2.59 ± 1.54%
- viability at 80 µM (NC59; [7]): 1.66 ± 1.57%
- IC50 (NC59; [6]): 27 µM
- IC50 (NC59): 27.2 µM
- viability at 1 µM (TD 20; [3]): 95 ± 8.87%
- viability at 20 µM (TD 20; [3]): 90.2 ± 5.97%
- viability at 40 µM (TD 20; [3]): 43.1 ± 13.8%
- viability at 60 µM (TD 20; [3]): 5.42 ± 4.11%
- viability at 80 µM (TD 20; [7]): 3.22 ± 3.46%
- IC50 (TD 20; [6]): 38 µM
- IC50 (TD 20): 37.9 µM
- IC50 (MDAMB 453; Homo sapiens, MDA-MB-453, MDAMB 453): 18 µM
- viability at 1 µM (MDAMB 453; Homo sapiens, MDAMB 453): 97.5 ± 3.25%
- viability at 20 µM (MDAMB 453; Homo sapiens, MDAMB 453): 42.8 ± 9.31%
- viability at 40 µM (MDAMB 453; Homo sapiens, MDAMB 453): 33.3 ± 7.34%
- viability at 60 µM (MDAMB 453; Homo sapiens, MDAMB 453): 8.25 ± 6.82%
- viability at 80 µM (MDAMB 453; Homo sapiens, MDAMB 453): 5.8 ± 4.76%
- IC50 (MDAMB 453; MDAMB 453): 17.9 µM
- % Inhibition of TNF-α in inflammatory exudate stimulated by zymosan (TNF-α; 0.039 mg/kg): 12.6 ± 2.6%
- % Inhibition of TNF-α in inflammatory exudate stimulated by zymosan (TNF-α; 0.156 mg/kg): 15.7 ± 4.9%
- % Inhibition of TNF-α in inflammatory exudate stimulated by zymosan (TNF-α; 0.625 mg/kg): 46.8 ± 12.5%
- % Inhibition of TNF-α in inflammatory exudate stimulated by zymosan (TNF-α; 2.5 mg/kg): 58.8 ± 13.6%
- DE-50, inhibition of TNF-α (TNF-α): DE-50 = 1.20 mg/kg, i.p.
